Laboratory results published in ChEMBL document CHEMBL1201862, “PubChem BioAssay data set” (2004).
Values joined by “and” are separate entries in the source; they are usually repeats but may differ in a detail not shown here. Equal values may be shown once. Active and inactive are the calls of the source.

Assays:
[1] = biological target: Ubiquitin carboxyl-terminal hydrolase BAP1 (Homo sapiens, UniProt Q92560); experiment: BAP1 deubiquitinase inhibitors, dose response, biochemical (AID 714); format: functional
NADPH oxidase 1 = NADPH oxidase 1 (Homo sapiens, UniProt Q9Y5S8); experiment: Late-stage luminescence-based cell-based dose response assay to identify inhibitors of NADPH oxidase 1 (NOX1): Purchased analogs 2.; format: functional
[2] = half-maximal inhibitory concentration for glucagon-like peptide-1 release, STC-1 cell line, dose-response (AID 1117345); format: functional, cell-based
[3] = Glucagon-like peptide 1 release potency, NCI-H716 cell line, dose-response, half-maximal inhibitory concentration (AID 1117344); format: functional, cell-based
[4] = P. falciparum Dd2 growth inhibitors, dose response, SYBR Green, dry powder samples, set 9 (AID 1159568); format: functional, cell-based
Cytochrome P450 2C19 = Cytochrome P450 2C19 (Homo sapiens, UniProt P33261); experiment: Cytochrome panel assay with activity outcomes. Panel member name: p450-cyp2c19 Compounds with AC50 equal or less than 10 uM are considered active; format: functional
Ephrin type-A receptor 4 = Ephrin type-A receptor 4 (Mus musculus, UniProt Q03137); experiment: inhibitors of EphA4 binding to KYL peptide, primary screen, biochemical, colorimetric, mouse EphA4 (AID 689); format: functional
[5] = biological target: UDP-galactopyranose mutase (Mycobacterium tuberculosis, UniProt P9WIQ1); experiment: Inhibitors of Mycobacterium tuberculosis UDP-galactopyranose mutase (UGM) enzyme Measured in Biochemical System Using Plate Reader - 2105-02_Inhibitor_Dose_CherryPick_Activity. [Related pubchem assays (depositor defined):AID504439]
Vero [6] = experiment: West Nile virus antiviral activity, cell-based, CPE readout (AID 1621); format: functional; conditions: Chlorocebus sabaeus
Vero [7] = experiment: host cell cytotoxicity of antiviral hits, dose response, cytotoxicity control for West Nile virus antiviral project, secondary assay (AID 1650); format: functional; conditions: Chlorocebus sabaeus
Ion channel NompC [8] = biological target: T1, Ion channel NompC (Danio rerio, UniProt Q7T1G6); experiment: Late stage counterscreen for the probe development effort to identify selective agonists of the Transient Receptor Potential Channels 3 (TRPML3): fluorescence-based cell-based dose response assay for TRPN1 agonists.; format: functional
Mucolipin-3 [9] = biological target: T2, Mucolipin-3 (Homo sapiens, UniProt Q8TDD5); experiment: TRPML3 agonist potency, dose response, cell-based, calcium fluorescence (AID 2510); format: functional
T2 sequence (Q8TDD5 whole entry): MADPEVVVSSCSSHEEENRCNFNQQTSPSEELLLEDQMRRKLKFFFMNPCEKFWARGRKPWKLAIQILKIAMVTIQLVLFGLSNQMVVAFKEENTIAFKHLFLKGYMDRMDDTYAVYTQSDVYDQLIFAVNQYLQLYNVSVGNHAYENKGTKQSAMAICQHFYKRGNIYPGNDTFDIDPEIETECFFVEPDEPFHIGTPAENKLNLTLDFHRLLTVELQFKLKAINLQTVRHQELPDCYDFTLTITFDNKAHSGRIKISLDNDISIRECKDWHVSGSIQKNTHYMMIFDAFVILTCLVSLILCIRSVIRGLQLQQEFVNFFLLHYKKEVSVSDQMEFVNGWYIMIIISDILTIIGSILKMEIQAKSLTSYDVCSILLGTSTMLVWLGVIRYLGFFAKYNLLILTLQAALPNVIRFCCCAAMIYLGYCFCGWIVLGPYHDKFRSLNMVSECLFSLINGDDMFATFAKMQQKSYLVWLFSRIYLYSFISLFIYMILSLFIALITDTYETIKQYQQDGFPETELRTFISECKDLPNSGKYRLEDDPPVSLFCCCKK

Ion channel NompC [10] = biological target: T1, Ion channel NompC; experiment: Fluorescence counterscreen assay for TRPML3 agonists: dose response cell-based high-throughput screening assay to identify agonists of the transient receptor potential channel N1 (TRPN1). [Related pubchem assays: 1526, 1424, 1448 ]; format: functional
Mucolipin-3 [11] = biological target: T2, Mucolipin-3; experiment: Dose response cell-based high-throughput screening assay for agonists of the transient receptor potential channel ML3 (TRPML3). [Related pubchem assays: 1526, 1424, 1448 ]; format: functional
14-3-3 protein gamma = 14-3-3 protein gamma (Homo sapiens, UniProt P61981); experiment: modulators of 14-3-3 gamma client binding – dose response (AID 711); format: functional
[12] = biological target: Peroxisome proliferator-activated receptor gamma/Nuclear receptor corepressor 2 (Homo sapiens, UniProt P37231+Q9Y618); experiment: Counterscreen for NR2E3 inverse agonists: TR-FRET-based biochemical high throughput dose response assay to identify inverse agonists of the interaction between peroxisome proliferator-activated receptor gamma (PPARg) and nuclear receptor co-repressor 2 (NCOR2).; format: functional
[13] = biological target: Photoreceptor-specific nuclear receptor (Homo sapiens, UniProt Q9Y5X4); experiment: NR2E3 inverse agonists, dose response, biochemical, TR-FRET (AID 463256); format: functional
[14] = HeLa 2N DNA content increase, dose response, cell-based, IC50 (AID 1117349); format: functional
[15] = Concentration-dependent survival of SW480 colon cancer line, luminescence detection with CellTiter-Glo, half-maximal inhibitory concentration (AID 1117338); format: functional
Mu-type opioid receptor = Mu-type opioid receptor (Homo sapiens, UniProt P35372); experiment: (§1) Counterscreen for agonists of heterodimerization of the mu 1 (OPRM1) and delta 1 (OPRD1) opioid receptors: Luminescence-based cell-based high throughput dose response assay to identify agonists of OPRM1 homodimerization.; format: functional
[16] = SNU-C1 cell viability reduction, dose response, CellTiter-Glo luminescence (AID 1117323); format: functional, cell-based
[17] = cytotoxicity toward HCT116 cells – cell-based, CellTiter-Glo luminescence, IC50, dose response (AID 1117332); format: functional; conditions: HCT-116
[18] = HeLa 4N DNA content increase, dose response, cell-based, IC50 (AID 1117351); format: functional
[19] = HCT116 cell viability decrease, GSK3B pretreatment – CellTiter-Glo, IC50, dose response (AID 1117339); format: functional; conditions: HCT-116
[20] = CellTiter-Glo luminescent dose response of DLD-1 viability loss (AID 1117352); format: functional
[21] = biological target: Delta-type opioid receptor (Homo sapiens, UniProt P41143); experiment: as §1, with “of OPRD1” for “of OPRM1”, “homodimerization. [Related pubchem assays (depositor defined):AID504326, AID504355, AID504692, AID504904, AID504905]” for “homodimerization.”; format: functional
[22] = cytotoxicity toward HT-29 cells – cell-based, CellTiter-Glo luminescence, IC50, dose response (AID 1117330); format: functional
[23] = cytotoxicity toward Colo320 cells – cell-based, CellTiter-Glo luminescence, IC50, dose response (AID 1117334); format: functional; conditions: COLO 320
[24] = RKO cell viability reduction, dose response, CellTiter-Glo luminescence (AID 1117322); format: functional
[25] = biological target: 5-hydroxytryptamine receptor 5A (Homo sapiens, UniProt P47898); experiment: Counterscreen for agonists of OPRM1-OPRD1 heterodimerization: luminescence-based cell-based high throughput dose response assay to identify agonists of 5-hydroxytryptamine (serotonin) 5A receptor (HTR5A). [Related pubchem assays (depositor defined):AID504326, AID504355, AID504692, AID504904, AID504905]; format: functional
[26] = Dose-response inhibition of insulin secretion in a rat insulinoma line at 5 mM glucose (AID 1117331); format: functional, cell-based; conditions: INS-1E
cells = format: functional, cell-based; conditions: INS-1E
[27] = M. tuberculosis growth inhibition, HTS (AID 449762); format: functional
[28] = A High Throughput Confirmatory Assay used to Identify Novel Compounds that Inhibit Mycobacterium Tuberculosis in the absence of Glycerol.; format: functional
Prothrombin = Prothrombin (Homo sapiens, UniProt P00734); experiment: Thrombin 1536 HTS Dose Response Confirmation. [Related pubchem assays: 1046 (Thrombin 1536 HTS; hits were confirmed in this assay)]; format: functional
[29] = biological target: Induced myeloid leukemia cell differentiation protein Mcl-1 (Homo sapiens, UniProt Q07820); format: functional
Sequence of Induced myeloid leukemia cell differentiation protein Mcl-1 (Q07820 whole entry): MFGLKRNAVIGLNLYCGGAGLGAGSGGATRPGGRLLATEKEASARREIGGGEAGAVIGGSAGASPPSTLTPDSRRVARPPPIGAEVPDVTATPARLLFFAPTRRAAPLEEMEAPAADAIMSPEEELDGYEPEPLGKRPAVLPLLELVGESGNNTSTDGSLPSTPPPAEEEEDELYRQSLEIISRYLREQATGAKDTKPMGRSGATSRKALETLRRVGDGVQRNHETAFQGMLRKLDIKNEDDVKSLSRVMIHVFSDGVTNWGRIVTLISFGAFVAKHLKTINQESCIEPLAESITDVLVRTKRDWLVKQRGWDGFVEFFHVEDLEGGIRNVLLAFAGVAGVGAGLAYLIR

Sequence of Delta-type opioid receptor (P41143 whole entry): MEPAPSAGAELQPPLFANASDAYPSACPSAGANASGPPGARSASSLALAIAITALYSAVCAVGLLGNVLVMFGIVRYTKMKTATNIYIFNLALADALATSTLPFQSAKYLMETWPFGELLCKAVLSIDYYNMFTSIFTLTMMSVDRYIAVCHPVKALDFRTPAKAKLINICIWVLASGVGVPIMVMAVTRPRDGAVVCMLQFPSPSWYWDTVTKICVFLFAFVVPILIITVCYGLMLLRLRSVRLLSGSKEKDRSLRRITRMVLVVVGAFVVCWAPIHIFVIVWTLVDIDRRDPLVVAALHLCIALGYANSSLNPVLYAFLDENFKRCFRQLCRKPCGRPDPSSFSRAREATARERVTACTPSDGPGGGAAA
T1 sequence (Q7T1G6 whole entry): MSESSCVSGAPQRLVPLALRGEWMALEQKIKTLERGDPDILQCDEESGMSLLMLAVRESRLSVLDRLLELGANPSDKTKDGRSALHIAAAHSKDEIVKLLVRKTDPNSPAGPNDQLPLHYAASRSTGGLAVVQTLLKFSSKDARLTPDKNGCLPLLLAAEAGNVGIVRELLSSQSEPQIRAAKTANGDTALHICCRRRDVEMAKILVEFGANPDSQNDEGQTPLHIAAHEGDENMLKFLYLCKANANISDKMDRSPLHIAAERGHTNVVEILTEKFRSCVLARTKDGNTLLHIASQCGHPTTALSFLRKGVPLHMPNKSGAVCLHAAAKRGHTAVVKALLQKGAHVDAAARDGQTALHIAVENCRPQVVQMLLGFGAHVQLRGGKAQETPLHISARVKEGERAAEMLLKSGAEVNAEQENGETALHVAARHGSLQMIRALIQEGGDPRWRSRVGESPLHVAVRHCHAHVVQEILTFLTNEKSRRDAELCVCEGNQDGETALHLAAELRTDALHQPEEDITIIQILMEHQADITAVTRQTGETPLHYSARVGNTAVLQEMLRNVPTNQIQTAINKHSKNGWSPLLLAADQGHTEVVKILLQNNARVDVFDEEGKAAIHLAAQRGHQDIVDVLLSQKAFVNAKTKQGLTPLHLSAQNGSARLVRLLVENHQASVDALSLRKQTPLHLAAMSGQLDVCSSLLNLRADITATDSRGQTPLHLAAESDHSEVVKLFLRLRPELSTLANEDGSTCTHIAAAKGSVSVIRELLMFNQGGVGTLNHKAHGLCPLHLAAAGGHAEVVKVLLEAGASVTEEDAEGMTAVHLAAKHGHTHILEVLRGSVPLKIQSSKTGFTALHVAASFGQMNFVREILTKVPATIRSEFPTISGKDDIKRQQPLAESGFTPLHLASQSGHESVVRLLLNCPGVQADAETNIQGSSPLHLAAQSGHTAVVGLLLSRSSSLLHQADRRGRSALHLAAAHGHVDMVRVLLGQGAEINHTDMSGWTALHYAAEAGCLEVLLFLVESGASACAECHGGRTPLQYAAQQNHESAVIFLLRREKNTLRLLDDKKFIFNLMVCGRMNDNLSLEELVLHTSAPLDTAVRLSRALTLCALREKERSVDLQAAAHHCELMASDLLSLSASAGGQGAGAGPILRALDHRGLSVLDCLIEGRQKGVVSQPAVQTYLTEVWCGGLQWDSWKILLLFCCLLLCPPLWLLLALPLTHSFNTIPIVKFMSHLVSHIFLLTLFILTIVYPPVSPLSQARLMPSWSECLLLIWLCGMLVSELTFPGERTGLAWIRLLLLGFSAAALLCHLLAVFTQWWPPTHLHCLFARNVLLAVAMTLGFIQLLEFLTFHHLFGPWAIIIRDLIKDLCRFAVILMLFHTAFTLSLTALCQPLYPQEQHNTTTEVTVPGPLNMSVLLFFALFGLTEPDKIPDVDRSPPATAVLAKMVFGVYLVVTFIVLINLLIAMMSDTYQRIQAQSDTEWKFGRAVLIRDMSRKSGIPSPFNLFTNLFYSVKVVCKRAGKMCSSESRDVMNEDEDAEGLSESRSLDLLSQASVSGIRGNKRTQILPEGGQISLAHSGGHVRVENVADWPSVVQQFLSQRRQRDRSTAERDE
Sequence of UDP-galactopyranose mutase (P9WIQ1 whole entry): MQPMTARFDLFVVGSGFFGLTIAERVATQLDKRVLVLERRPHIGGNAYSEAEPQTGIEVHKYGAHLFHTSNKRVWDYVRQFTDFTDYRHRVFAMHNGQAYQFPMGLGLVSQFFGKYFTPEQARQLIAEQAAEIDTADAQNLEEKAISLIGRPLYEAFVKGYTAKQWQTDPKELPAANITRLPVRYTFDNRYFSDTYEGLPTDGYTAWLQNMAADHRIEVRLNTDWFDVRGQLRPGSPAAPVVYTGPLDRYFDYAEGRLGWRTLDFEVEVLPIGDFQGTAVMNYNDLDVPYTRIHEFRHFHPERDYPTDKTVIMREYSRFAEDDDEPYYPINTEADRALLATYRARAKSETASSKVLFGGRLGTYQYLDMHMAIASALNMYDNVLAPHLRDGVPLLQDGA
Sequence of 14-3-3 protein gamma (P61981 whole entry): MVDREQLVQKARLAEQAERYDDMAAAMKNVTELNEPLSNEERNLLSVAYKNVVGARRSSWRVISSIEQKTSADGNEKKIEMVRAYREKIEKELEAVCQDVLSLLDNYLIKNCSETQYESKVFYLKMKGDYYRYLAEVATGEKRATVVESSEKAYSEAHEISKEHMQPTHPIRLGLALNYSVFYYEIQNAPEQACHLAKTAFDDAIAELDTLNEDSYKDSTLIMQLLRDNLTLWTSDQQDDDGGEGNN
Sequence of Ephrin type-A receptor 4 (Q03137 whole entry): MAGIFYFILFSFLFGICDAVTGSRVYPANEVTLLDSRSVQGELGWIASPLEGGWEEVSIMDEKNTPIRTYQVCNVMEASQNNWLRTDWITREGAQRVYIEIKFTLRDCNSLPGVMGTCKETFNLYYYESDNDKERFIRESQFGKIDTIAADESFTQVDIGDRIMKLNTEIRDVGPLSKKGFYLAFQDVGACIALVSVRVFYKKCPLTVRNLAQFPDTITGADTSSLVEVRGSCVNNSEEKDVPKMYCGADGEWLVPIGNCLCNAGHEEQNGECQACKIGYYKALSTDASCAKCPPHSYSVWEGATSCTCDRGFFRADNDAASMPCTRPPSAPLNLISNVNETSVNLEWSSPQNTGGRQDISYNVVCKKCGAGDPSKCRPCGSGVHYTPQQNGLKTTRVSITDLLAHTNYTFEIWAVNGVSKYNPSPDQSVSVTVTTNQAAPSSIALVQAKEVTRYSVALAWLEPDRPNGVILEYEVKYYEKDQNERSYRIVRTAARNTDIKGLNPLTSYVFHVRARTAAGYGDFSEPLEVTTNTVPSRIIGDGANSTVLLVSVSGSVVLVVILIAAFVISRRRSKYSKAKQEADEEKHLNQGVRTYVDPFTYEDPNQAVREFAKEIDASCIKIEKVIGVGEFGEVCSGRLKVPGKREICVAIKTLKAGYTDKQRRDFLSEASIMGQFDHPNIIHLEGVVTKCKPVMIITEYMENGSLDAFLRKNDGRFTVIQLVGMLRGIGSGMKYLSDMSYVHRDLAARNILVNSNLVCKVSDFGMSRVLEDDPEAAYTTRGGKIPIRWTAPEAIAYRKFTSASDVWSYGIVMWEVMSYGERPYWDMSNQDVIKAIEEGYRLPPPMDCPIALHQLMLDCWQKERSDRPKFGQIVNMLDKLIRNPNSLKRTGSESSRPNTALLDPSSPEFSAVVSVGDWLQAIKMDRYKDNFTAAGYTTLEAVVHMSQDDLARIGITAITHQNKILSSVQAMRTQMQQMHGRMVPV
Sequence of Cytochrome P450 2C19 (P33261 whole entry): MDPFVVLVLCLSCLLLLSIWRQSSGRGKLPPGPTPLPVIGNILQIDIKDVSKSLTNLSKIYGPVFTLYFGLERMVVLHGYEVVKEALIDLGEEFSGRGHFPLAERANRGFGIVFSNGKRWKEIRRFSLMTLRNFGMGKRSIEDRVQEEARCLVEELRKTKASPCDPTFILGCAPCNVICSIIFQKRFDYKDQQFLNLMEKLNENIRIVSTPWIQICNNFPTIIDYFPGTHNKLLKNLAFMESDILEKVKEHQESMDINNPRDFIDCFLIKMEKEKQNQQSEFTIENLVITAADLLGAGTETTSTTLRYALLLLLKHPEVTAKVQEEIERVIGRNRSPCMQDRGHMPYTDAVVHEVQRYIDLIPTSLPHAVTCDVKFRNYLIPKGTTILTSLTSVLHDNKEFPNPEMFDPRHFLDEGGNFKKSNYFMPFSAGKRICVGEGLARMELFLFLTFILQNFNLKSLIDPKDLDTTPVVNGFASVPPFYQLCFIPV
Sequence of NADPH oxidase 1 (Q9Y5S8 whole entry): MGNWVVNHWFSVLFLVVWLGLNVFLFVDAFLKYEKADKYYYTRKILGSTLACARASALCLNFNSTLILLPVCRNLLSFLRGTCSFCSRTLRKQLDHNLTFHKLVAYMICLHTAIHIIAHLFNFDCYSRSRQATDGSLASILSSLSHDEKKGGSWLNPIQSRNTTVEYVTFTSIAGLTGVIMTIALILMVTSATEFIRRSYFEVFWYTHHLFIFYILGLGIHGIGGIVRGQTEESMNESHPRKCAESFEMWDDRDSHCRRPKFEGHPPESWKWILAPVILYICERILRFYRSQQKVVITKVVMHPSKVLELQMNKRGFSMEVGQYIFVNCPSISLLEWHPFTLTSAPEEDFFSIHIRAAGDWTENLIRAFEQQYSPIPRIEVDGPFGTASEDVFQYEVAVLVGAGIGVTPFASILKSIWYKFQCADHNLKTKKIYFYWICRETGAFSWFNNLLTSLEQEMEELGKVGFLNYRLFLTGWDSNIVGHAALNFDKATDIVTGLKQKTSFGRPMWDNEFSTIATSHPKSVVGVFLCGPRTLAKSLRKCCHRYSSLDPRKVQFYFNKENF

Nc1c(C(O)(C(F)(F)F)C(F)(F)F)ccc2ccccc12
IC50 [1]: > 50 µM (not active)

O=[N+]([O-])c1ccc(/C=N/Nc2c(Cl)cc(Cl)cc2Cl)cc1
IC50 (NADPH oxidase 1): > 17 µM (not active)

NC[C@@H]1O[C@H](O[C@H]2[C@H](O)[C@H](O[C@H]3[C@@H](O)[C@H](N)C[C@H](N)[C@H]3O[C@H]3O[C@H](CN)[C@H](O)[C@H](O)[C@H]3N)O[C@@H]2CO)[C@@H](N)[C@@H](O)[C@@H]1O
IC50 [2]: > 40 µM (inactive) | IC50 [3]: > 40 µM (inactive)

Cc1ccccc1-c1ccc([C@@H]2[C@H](CO)N3CCCCN(S(=O)(=O)Cc4ccccc4)C[C@@H]23)cc1
AC50 [4]: 0.878 µM (active)

CCCCn1nc(-c2ccccc2)c2nc3ccccc3nc21
AC50 (Cytochrome P450 2C19): inconclusive | IC50 (Ephrin type-A receptor 4): 13.1 µM (active) | AC50 [5]: 41.9 µM (active)

CC(C)c1cc(C(C)C)c(S(=O)(=O)N2c3ccccc3[C@]3(Br)C[C@H]4C(=O)N[C@@H](Cc5ccccc5)C(=O)N4[C@H]23)c(C(C)C)c1
IC50 (Vero [6]): 39.9 µM (active) | CC50 (Vero [7]): 13.7 µM (active)

Cc1ccc(S(=O)(=O)n2nccc2-c2c(-c3ccccc3)noc2C)cc1
EC50 (Ion channel NompC [8]): > 29.9 µM (not active) | EC50 (Mucolipin-3 [9]): 1.01 µM (active) | EC50 (Ion channel NompC [10]): > 29.9 µM (not active) | EC50 (Mucolipin-3 [11]): 0.819 µM (active)

COCCNC(=O)C(c1ccncc1)N(C(=O)Cn1nnc2ccccc21)c1ccc(OC)cc1 (stereo unspecified)
IC50 (14-3-3 protein gamma): 24.6 µM (active)

COc1ccc(-c2oc3ncn4nc(Cc5ccccc5)nc4c3c2-c2ccc(OC)cc2)cc1
IC50 [12]: 6.02 µM (active) | IC50 [13]: 7.69 µM (active)

CCC(COC(=O)c1cc(OC)c(OC)c(OC)c1)(c1ccccc1)N(C)C (stereo unspecified)
IC50 [14]: > 10 µM (inactive) | IC50 [15]: > 20 µM (inactive) | EC50 (Mu-type opioid receptor): > 92.5 µM (inactive) | IC50 [16]: 2.45 µM (active) | IC50 [17]: > 20 µM (inactive) | IC50 [18]: > 10 µM (inactive) | IC50 [19]: 1.61 µM (active) | IC50 [20]: > 20 µM (inactive) | EC50 [21]: > 92.5 µM (inactive) and 65.1 µM (inactive) | IC50 [22]: > 20 µM (inactive) | IC50 [23]: > 20 µM (inactive) | IC50 [24]: 0.142 µM (active) | EC50 [25]: > 92.5 µM (inactive)

Oc1ccc(CCNCCCCCCNCCc2ccccc2)cc1O [DOPEXAMINE]
IC50 [26]: > 33.3 µM (inactive) | IC50 (cells): > 33.3 µM (inactive)

CCCOc1cccc(C(=O)NC(=S)Nc2ccc(N3CCN(C)CC3)cc2)c1
IC50 [27]: > 100 µM (active) | IC50 [28]: > 100 µM (active)

O=[N+]([O-])c1ccc(-c2cc(O)n3nc(-c4ccc(Cl)cc4)cc3n2)cc1
IC50 (Prothrombin): > 50 µM (not active) | IC50 [29]: 1.72 µM (active)
